Laboratory results from publication PMC12096834, “Antimicrobial peptide plectasin recombinantly produced in Escherichia coli disintegrates cell walls of gram-positive bacteria, as proven by transmission electron and atomic force microscopy” (Journal of Bacteriology, 2025).
Converted amounts (≈) assume the structure as drawn.

Tests used:
Experiment in all cases: Antimicrobial activity assay (broth microdilution MIC)
Assay type in all cases: cell-based
[1] = system: Enterococcus faecalis DSM 2570 (ATCC 29212); conditions: MH broth, approx 5 × 10^4 CFU/well, 35°C, 18 hours, absorbance 625 nm, three independent assays, plectasin 0.5–512 µg/mL, CASPON-plectasin 16–16,384 µg/mL
From the text: (§1) The test panel included four gram-positive and four gram-negative bacterial strains, which were selected based on EUCAST recommendations and are commonly used in quality control for pathogen testing. Specifically, the test panel comprised the following four gram-positive strains: Staphylococcus aureus DSM 2569 (ATCC 29213), Streptococcus pneumoniae DSM 24048 (ATCC 49619), Listeria monocytogenes DSM 20600 (ATCC 15313), and Enterococcus faecalis DSM 2570 (ATCC 29212). The gram-negative strains included the following: Pseudomonas aeruginosa DSM 1117 (ATCC 27853), Escherichia coli DSM 1103 (ATCC 25922), Escherichia coli BL21(DE3) DSM 102052 (ATCC BAA-1025-B2), and Escherichia coli HMS174 DSM 5932 (ATCC 47011). These strains were obtained from the German Collection of Microorganisms and Cell Cultures GmbH (DSMZ, Leibnitz Institute, Braunschweig, Germany). The strains were maintained in cryo-stocks containing 20% glycerol at a temperature of −80°C. When needed, all gram-negative strains were streaked on MH-agar (Oxoid, Hampshire, UK) and all gram-positive strains on TSYE-agar, with the exception of the Listeria monocytogenes strain, for which BHI-agar was used. All strains were incubated overnight at 35°C.
(§2) The plates were made fresh on the day of the assay by first adding 50 µL of sterile water (for the gram-positive strains) or PBS buffer pH 7.4 (for the gram-negative strains) into the wells of the first to 11th column of a polystyrene 96-well plate (Greiner, 655161, Kremsmünster, Austria). An ampicillin stock solution (6,400 µg/mL) was prepared and diluted in sterile water to obtain a final ampicillin solution of 64 µg/mL. Purified plectasin, 100 µL of ampicillin solution, CASPON-plectasin, and sterile water for the negative control were each dispensed into two wells of the 12th microtiter plate column and diluted twofold from the 11th to the second column by transferring 50 µL per well of the previous column into the next one (in the end, 50 µL of the 2nd was discarded) to obtain the ranges of 0.064–64 µg/mL for ampicillin, 32–32,768 µg/mL for CASPON-plectasin, and 0.5–512 µg/mL (Streptococcus pneumoniae and Staphylococcus aureus), 1–1,024 µg/mL (Enterococcus faecalis and Listeria monocytogenes), or 4–4,096 µg/mL (gram-negative strains) for plectasin.
(§3) Bacterial inocula were prepared by suspending colonies from incubated plates described above with 3 mL 0.85% NaCl solution to obtain a turbidity corresponding to McFarland standard 0.5. The inoculated saline suspensions (1–2 × 10^8 CFU/mL) were diluted 1:100 in double concentrated MH- (all gram-negative strains, Staphylococcus aureus, and […]) or MHF- (Streptococcus pneumoniae, Listeria monocytogenes; MH-broth with 5% lysed horse blood and 20 mg/L ß-NAD) broth to obtain approximately […]. Fifty microliters of the diluted inoculum was added to the wells of the prepared microdilution plate, resulting in the final plectasin (0.25–256 µg/mL, 0.5–512 µg/mL, and 2–2,048 µg/mL), CASPON-plectasin (16–16,384 µg/mL), and ampicillin (0.032–32 µg/mL) concentrations and approximately […]. The wells of the negative control were inoculated with sterile double-concentrated MH- or MH-F broth. A schematic illustration of the plate preparation can be found in the supplementary material (Fig. S1). Plates were incubated in ambient air at 35°C for 18 hours. After incubation, the plates were shaken for 1 minute (1,000 rpm) on a platform shaker (Titramax 101, Heidolph, Schwabach, Germany) until obtaining a homogeneous suspension. The absorbances (625 nm) of each well were measured on a Tecan Spark device (Männedorf, Switzerland) and subtracted by the average absorbance of the negative control. […] The variability of the MIC results was evaluated by testing all strains against each agent in three independent assays. […]

[2] = system: Escherichia coli BL21(DE3) DSM 102052 (ATCC BAA-1025-B2)
From the text: as §1, §2, §3

[3] = system: Escherichia coli DSM 1103 (ATCC 25922); conditions: MH broth, 35°C, 18 hours, absorbance 625 nm, three independent tests, plectasin 2–2,048 µg/mL, CASPON-plectasin 16–16,384 µg/mL
From the text: as §1, §2, §3

[4] = system: Escherichia coli HMS174 DSM 5932 (ATCC 47011); conditions: MH broth, 35°C, 18 hours, absorbance 625 nm, three independent tests, plectasin 2–2,048 µg/mL, CASPON-plectasin 16–16,384 µg/mL
From the text: as §1, §2, §3

[5] = system: Listeria monocytogenes DSM 20600 (ATCC 15313); conditions: MHF broth, approx 5 × 10^4 CFU/well, 35°C, 18 hours, absorbance 625 nm, three independent assays, plectasin 0.5–512 µg/mL, CASPON-plectasin 16–16,384 µg/mL
From the text: as §1, §2, §3

[6] = system: Pseudomonas aeruginosa DSM 1117 (ATCC 27853); conditions: MH broth, 35°C, 18 hours, absorbance 625 nm, three independent tests, plectasin 2–2,048 µg/mL, CASPON-plectasin 16–16,384 µg/mL
From the text: as §1, §2, §3

[7] = system: Staphylococcus aureus DSM 2569 (ATCC 29213); conditions: 18 hours
From the text: as §1, §2, §3

[8] = system: Streptococcus pneumoniae DSM 24048 (ATCC 49619); conditions: 18 hours
From the text: as §1, §2, §3

[9] = microdilution, extinction at 625 nm, Fig. 3

Compound: CC[C@H](C)[C@@H]1NC(=O)[C@H](CO)NC(=O)[C@H](CCCCN)NC(=O)[C@@H]2CSSC[C@@H](C(=O)N[C@@H](Cc3ccc(O)cc3)C(=O)O)NC(=O)[C@H](CCCCN)NC(=O)[C@@H]3CSSC[C@H](NC(=O)[C@H](CCC(N)=O)NC(=O)[C@H](CCSC)NC(=O)[C@H](CC(=O)O)NC(=O)[C@H](CC(=O)O)NC(=O)[C@H](CCC(=O)O)NC(=O)[C@H](CC(=O)O)NC(=O)[C@H](Cc4c[nH]c5ccccc45)NC(=O)[C@@H]4CCCN4C(=O)CNC(=O)[C@H](CC(N)=O)NC(=O)[C@@H](NC(=O)CNC(=O)[C@H](Cc4ccccc4)NC(=O)CN)CSSC[C@H](NC(=O)[C@H](Cc4ccc(O)cc4)NC(=O)CNC(=O)CNC(=O)[C@H](CCCCN)NC(=O)[C@H](Cc4ccc(O)cc4)NC(=O)CNC(=O)[C@H](CCCCN)NC1=O)C(=O)N[C@@H](C)C(=O)N[C@@H](CCCCN)C(=O)NCC(=O)NCC(=O)N[C@@H](Cc1ccccc1)C(=O)N[C@@H](C(C)C)C(=O)N3)C(=O)N[C@@H](Cc1c[nH]cn1)C(=O)N[C@@H](CC(N)=O)C(=O)N[C@@H](Cc1c[nH]cn1)C(=O)N2 [Plectasin, plectasin]
- MIC [1]: 128 µg/mL (≈ 29.1 µM)
- growth inhibition (no MIC could be determined) ([2]; broth microdilution, MH broth, 35°C, 18 hours, absorbance 625 nm, three independent tests, plectasin 2–2,048 µg/mL, CASPON-plectasin 16–16,384 µg/mL): no growth decline
- extinction value at 625 nm (growth) at the highest plectasin concentration ([2]; increased number and altered morphology of cells (Fig. S11)): four times higher
- growth inhibition (no MIC could be determined) [3]: no growth decline
- growth inhibition (no MIC could be determined) [4]: no growth decline
- MIC [5]: 32 µg/mL (≈ 7.27 µM)
- growth inhibition (no MIC could be determined) [6]: no growth decline
- MIC ([7]; broth microdilution, MH broth, approx 5 × 10^4 CFU/well, 35°C, absorbance 625 nm, three independent assays, plectasin 0.25–256 µg/mL, CASPON-plectasin 16–16,384 µg/mL): 32 µg/mL (≈ 7.27 µM)
- plectasin concentration at which a distinct gradient of extinction reduction was observed [7, 9]: 8 µg/mL
- MIC ([8]; broth microdilution, MHF broth (5% lysed horse blood, 20 mg/L ß-NAD), approx 5 × 10^4 CFU/well, 35°C, absorbance 625 nm, three independent assays, plectasin 0.25–256 µg/mL, CASPON-plectasin 16–16,384 µg/mL): 4 µg/mL (≈ 0.909 µM)
- plectasin concentration at which a distinct gradient of extinction reduction was observed [8, 9]: 0.5 µg/mL
